Drawing on PubChem BioAssay (NCI), this text covers TGI and GI50 for 19 compounds.

Among the test systems are DMS 273 small cell lung; LXFL 529 NSCLC; M19-MEL melanoma; DLD-1 colon; PC-3 prostate; DU-145 prostate; MDA-MB-435; MDA-MB-231 breast; HS 578T breast.
Holding throughout (test): NCI anticancer screen, dose series, 48 h

Several values for one entry are separate records, joined by “and”; a condition that tells them apart may be missing. Equal entries are not always repeated.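 Assay format: 96-well plates, 48-hour exposure. GI50 marks 50% less growth. At the TGI there is no net growth.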

Turning to `CC(=O)OCC(OC(C)=O)C(OC(C)=O)C(OC(C)=O)C(=O)CNn1c(-c2ccccc2Cl)nc2ccccc2c1=O` (stereo not given), the TGI in the assay on DMS 273 small cell lung, in the assay on LXFL 529 NSCLC and in the assay with M19-MEL melanoma was more than 100 µM in each case.

Regarding `Cc1cccc(C)c1NC(=O)C1C(=O)N(c2c(C)cccc2C)C(=O)/C1=N\NC(N)=S` (stereo not given), the TGI in the assay on DLD-1 colon, with LXFL 529 NSCLC and with M19-MEL melanoma was more than 100 µM throughout.

`CC[O-].CC[O-].O=S(=O)([O-])c1ccc([O-])c2ncccc12.O=S(=O)([O-])c1ccc([O-])c2ncccc12.[Ti+4]`: the GI50 was 78.1 µM in the assay with DMS 273 small cell lung, 91.1 µM in the assay with DLD-1 colon, 39.6 µM in the assay on LXFL 529 NSCLC and more than 100 µM in the assay with M19-MEL melanoma. Besides, the TGI with DMS 273 small cell lung, in the assay on DLD-1 colon, in the assay on LXFL 529 NSCLC and in the assay on M19-MEL melanoma was more than 100 µM each time.

Turning to `COC(=O)C(CC(=O)Nc1ccc(C)cc1)C(=O)C(=O)Nc1ccccc1C(C)C` (stereo not given), the TGI with DMS 273 small cell lung, in the assay with DLD-1 colon, in the assay with LXFL 529 NSCLC and with M19-MEL melanoma was more than 100 µM throughout.

As for `C/C(=N\N(c1ccccc1)c1ccccc1)c1c(O)cc(C)oc1=O`, the TGI in the assay with DLD-1 colon, with LXFL 529 NSCLC and in the assay on M19-MEL melanoma was more than 100 µM throughout.

`CCOP(=O)(OCC)OC(C#N)c1ccc(-c2ccccc2)cc1` (stereo not given): the TGI in the assay on DMS 273 small cell lung came to 27.5 µM; in the assay on DLD-1 colon, 36.9 µM; with LXFL 529 NSCLC, 32 µM; in the assay with M19-MEL melanoma it was 50.3 µM.

In the case of `CCOC(=O)C1(C#N)C(c2ccccc2)CC(O)(c2ccc(Cl)cc2)C(C(=O)c2ccc(Cl)cc2)C1c1ccccc1` (stereo not given), the TGI in the assay with DMS 273 small cell lung, in the assay on DLD-1 colon, with LXFL 529 NSCLC and with M19-MEL melanoma was more than 100 µM each time.

Turning to `COC(=O)C1=C(C(=O)OC)SC(=CC#CC=C2SC(C(=O)OC)=C(C(=O)OC)S2)S1`, the TGI was 38.4 µM with DMS 273 small cell lung, more than 54 µM with DLD-1 colon, more than 57.4 µM with LXFL 529 NSCLC and more than 100 µM in the assay on M19-MEL melanoma.

`O=C(N/N=C(/CCN1CCCC1)CC(c1ccccc1)c1c(O)c2ccccc2oc1=O)c1ccncc1` (stereo not given): the TGI in the assay on DLD-1 colon, in the assay on LXFL 529 NSCLC and in the assay on M19-MEL melanoma was more than 100 µM in each case.

As for `CCn1c2ccc(O)cc2c2c(C)c3c[n+](C)ccc3c(C)c21`, the GI50 with PC-3 prostate is 15.2 µM; in the assay with DU-145 prostate, 5.25 µM; in the assay with MDA-MB-435 it was 9.17 µM; with MDA-MB-231 breast, 9.58 µM; in the assay with HS 578T breast, 0.509 µM. The TGI in the assay with PC-3 prostate was more than 100 µM; in the assay with DU-145 prostate it was more than 100 µM; with MDA-MB-435, 50.9 µM; in the assay with MDA-MB-231 breast, more than 100 µM; in the assay on HS 578T breast, 4.98 µM.

Regarding `COc1ccc2cc(-c3c(-c4ccncc4)nc(-c4ccc(S(C)(=O)=O)cc4C)n3C)ccc2c1`, the GI50 with PC-3 prostate was 8.35 µM; with DU-145 prostate, 10.2 µM; in the assay on MDA-MB-435, 9.18 µM; in the assay on MDA-MB-231 breast, 9.75 µM; with HS 578T breast, 5.24 µM. For the same compound, the TGI in the assay with PC-3 prostate, in the assay on DU-145 prostate, with MDA-MB-435, with MDA-MB-231 breast and with HS 578T breast was more than 25 µM throughout.

`CCOC(=O)/C=C/C1=C(c2cccs2)c2ccccc2CC1`: the GI50 in the assay on PC-3 prostate was 37.1 µM; with DU-145 prostate, 22.6 µM; in the assay with MDA-MB-435 it was 20.6 µM; in the assay with MDA-MB-231 breast it was 20.5 µM; with HS 578T breast it was 28.5 µM. Further, the TGI was more than 100 µM with PC-3 prostate; 58.6 µM in the assay with DU-145 prostate; 51.3 µM with MDA-MB-435; 64.7 µM in the assay on MDA-MB-231 breast; 99.1 µM in the assay on HS 578T breast.

Regarding `COc1ccc(-c2oc3c(OC)c(OC)c(OC)c(OC)c3c(=O)c2OC)cc1OC`, the TGI in the assay with PC-3 prostate is more than 100 µM; with DU-145 prostate, more than 100 µM; with MDA-MB-435 it was 98.7 µM; in the assay with MDA-MB-231 breast, more than 100 µM; with HS 578T breast it was 56.3 µM.

As to `COc1ccc2c(c1)/C(=C\c1c(Cl)[nH]c3ccc(OC)cc13)C(=O)N2`, the GI50 in the assay on PC-3 prostate was 48.9 µM; with DU-145 prostate, more than 100 µM; in the assay on MDA-MB-435, 33.7 µM; in the assay with MDA-MB-231 breast, 27.8 µM; in the assay on HS 578T breast, 29.9 µM. Also, the TGI was more than 100 µM in the assay with PC-3 prostate; more than 100 µM in the assay on DU-145 prostate; more than 100 µM in the assay with MDA-MB-435; 75.2 µM in the assay with MDA-MB-231 breast; 81.2 µM in the assay on HS 578T breast.

Consider `COc1ccc(Cn2c3c(cc(OS(=O)(=O)C(F)(F)F)c2=O)Cc2ccccc2-3)cc1`, for which the GI50 is 26.7 µM with PC-3 prostate; 17.1 µM in the assay with DU-145 prostate; 29.4 µM with MDA-MB-435; 5.26 µM in the assay with MDA-MB-231 breast; more than 100 µM with HS 578T breast. In addition, the TGI was more than 100 µM in the assay with PC-3 prostate; 50 µM and > 100 µM in the assay on DU-145 prostate; 50 µM and > 100 µM in the assay on MDA-MB-435; more than 100 µM with MDA-MB-231 breast; more than 100 µM with HS 578T breast.

`C=CC(=O)Nc1cc2c(Nc3ccc(F)c(Cl)c3)ncnc2cc1OCCCN1CCOCC1`: the GI50 in the assay with PC-3 prostate is 2.76 µM and 4.33 µM; with DU-145 prostate it was 0.159 µM and 0.741 µM; in the assay with MDA-MB-435 it was 2.67 µM and 4.1 µM; in the assay with MDA-MB-231 breast it was 1.74 µM and 2.32 µM; in the assay on HS 578T breast, 2.05 µM and 2.21 µM. Besides, the TGI with PC-3 prostate was 9.85 µM and > 10 µM; in the assay on DU-145 prostate, 12.2 µM and > 10 µM; in the assay on MDA-MB-435, 12 µM and > 10 µM; in the assay on MDA-MB-231 breast it was 4.71 µM and 9.93 µM; in the assay on HS 578T breast it was 7.21 µM and > 10 µM.

Regarding `CCOc1cccc(/C=N/NC(=O)C(=O)Nc2cccc(C(F)(F)F)c2)c1O`, the GI50 in the assay on PC-3 prostate is 1.95 µM; with DU-145 prostate, 3.22 µM; in the assay on MDA-MB-435 it was 4.16 µM; in the assay with MDA-MB-231 breast, 1.43 µM; with HS 578T breast it was 12 µM. Besides, the TGI in the assay on PC-3 prostate, in the assay with DU-145 prostate, in the assay on MDA-MB-435, in the assay with MDA-MB-231 breast and in the assay on HS 578T breast was more than 100 µM in each case.

With `NC(=S)NNc1c([N+](=O)[O-])cnn(-c2ccccc2)c1=O`, the TGI in the assay on DMS 273 small cell lung amounted to 33.8 µM; in the assay on DLD-1 colon it was 28.5 µM; in the assay with LXFL 529 NSCLC, 21.1 µM; in the assay with M19-MEL melanoma it was 26.5 µM.

As to `CNCCn1c(=O)c2cc(OC)c(OC)cc2c2ccc3cc4c(cc3c21)OCO4`, the GI50 in the assay with PC-3 prostate is 0.109 µM; in the assay on DU-145 prostate, 0.122 µM; in the assay with MDA-MB-435, 0.131 µM; with MDA-MB-231 breast it was 0.335 µM; with HS 578T breast, 0.835 µM. Moreover, the TGI with PC-3 prostate was 6.23 µM; with DU-145 prostate, 2.51 µM; in the assay with MDA-MB-435 it was 0.708 µM; in the assay on MDA-MB-231 breast, 3.66 µM; in the assay with HS 578T breast, 8.39 µM.
